A short description of series [1]: Half life in human (healthy individuals) at 90 mg, single oral dose. It counts as ADME. The settings on record: in vivo.
Series [2] is described as follows: Tmax in human (healthy individuals) at 30 mg, single oral dose. It counts as ADME. The settings on record: in vivo.
Series [3] addresses Cytochrome P450 2C19 (Homo sapiens, UniProt P33261). Kind of series: Inhibition of CYP2C19 (unknown origin) measured after 30 mins. It counts as ADME.
For series [4], the target named is T1, Cytochrome P450 2C8 (Homo sapiens, UniProt P10632).
T1 sequence (P10632 whole entry): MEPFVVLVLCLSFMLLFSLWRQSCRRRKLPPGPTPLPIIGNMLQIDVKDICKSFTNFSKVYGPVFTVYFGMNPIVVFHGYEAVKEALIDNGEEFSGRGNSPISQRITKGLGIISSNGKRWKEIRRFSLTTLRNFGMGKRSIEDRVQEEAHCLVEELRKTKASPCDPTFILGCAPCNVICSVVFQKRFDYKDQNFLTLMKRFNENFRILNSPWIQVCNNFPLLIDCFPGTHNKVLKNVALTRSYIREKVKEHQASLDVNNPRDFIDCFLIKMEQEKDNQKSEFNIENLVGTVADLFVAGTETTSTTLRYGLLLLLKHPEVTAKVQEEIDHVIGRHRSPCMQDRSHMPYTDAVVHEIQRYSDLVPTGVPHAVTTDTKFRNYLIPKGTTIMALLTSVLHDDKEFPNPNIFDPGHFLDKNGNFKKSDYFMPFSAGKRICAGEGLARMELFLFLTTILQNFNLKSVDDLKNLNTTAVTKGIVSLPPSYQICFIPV
Kind of series: Inhibition of CYP2C8 (unknown origin) measured after 30 mins. It counts as ADME.

Series [5] has as its target Cytochrome P450 2C9 (Homo sapiens, UniProt P11712). The series can be described thus: Inhibition of CYP2C9 (unknown origin) measured after 30 mins. It counts as ADME.
The target of series [6] is T2, CYP3A4 (Homo sapiens, UniProt P08684). Kind of series: Time dependent inhibition of CYP3A4 (unknown origin) using testosterone as substrate at 30 uM measured after 30 mins relative to control. The settings on record: probe testosterone, read-out: TDI. It counts as ADME.
The nature of series [7]: Clearance in CD-1 mouse at 0.5 mg/kg, iv measured up to 24 hrs by LC-MS/MS analysis. The settings on record: in vivo. It counts as ADME, organism-based.
The subject of series [8] is 786-0. Kind of series: Anti-tumor activity against human 786-0 cells xenografted in mouse model assessed as tumor growth inhibition at 30 mg/kg, po once daily for 15 days. It counts as functional, organism-based. The settings on record: time 15.0 day.
The nature of series [9]: Half life in human (healthy individuals) at 30 mg, single oral dose. The settings on record: in vivo. Format: ADME.
Series [10] has as its target T3, CYP1A2 (Homo sapiens, UniProt P05177).
T3 sequence (P05177 whole entry): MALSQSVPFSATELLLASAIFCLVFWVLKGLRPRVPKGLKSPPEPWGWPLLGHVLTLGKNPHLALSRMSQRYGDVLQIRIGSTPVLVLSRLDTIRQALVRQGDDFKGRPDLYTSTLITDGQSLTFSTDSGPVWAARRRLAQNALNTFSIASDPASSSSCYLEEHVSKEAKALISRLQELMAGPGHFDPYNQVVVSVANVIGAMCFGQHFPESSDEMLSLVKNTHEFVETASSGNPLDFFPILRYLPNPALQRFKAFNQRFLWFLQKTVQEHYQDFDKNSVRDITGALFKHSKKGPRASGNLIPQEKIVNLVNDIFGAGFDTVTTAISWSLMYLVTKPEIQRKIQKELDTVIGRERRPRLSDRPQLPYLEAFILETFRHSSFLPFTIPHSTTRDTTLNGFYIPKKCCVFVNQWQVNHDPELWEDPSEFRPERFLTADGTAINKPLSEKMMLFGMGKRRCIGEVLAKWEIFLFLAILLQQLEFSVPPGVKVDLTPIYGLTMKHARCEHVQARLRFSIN
The series can be described thus: Time dependent inhibition of CYP1A2 (unknown origin) at 30 uM measured after 30 mins relative to control. Format: ADME. Particulars: read-out: TDI.

Series [11] deals with Cytochrome P450 3A4 (Homo sapiens, UniProt P08684). The series can be described thus: Inhibition of CYP3A4 (unknown origin) using testosterone as substrate measured after 30 mins. It counts as ADME.
A short description of series [12]: AUC (0 to 24 hrs) in human (healthy individuals) at 270 mg, single oral dose. It counts as ADME. The settings on record: in vivo.
Series [13] in a line: Clearance in Sprague-Dawley rat at 0.5 mg/kg, iv measured up to 24 hrs by LC-MS/MS analysis. Particulars: in vivo. Format: ADME, organism-based.
For series [14], the target named is T2, CYP3A4. Kind of series: Time dependent inhibition of CYP3A4 (unknown origin) using midazolam as substrate at 30 uM measured after 30 mins relative to control. Format: ADME. Particulars: probe midazolam, read-out: TDI.
The target of series [15] is T4, Tyrosine-protein kinase receptor UFO (Homo sapiens, UniProt P30530).
T4 sequence (P30530 whole entry): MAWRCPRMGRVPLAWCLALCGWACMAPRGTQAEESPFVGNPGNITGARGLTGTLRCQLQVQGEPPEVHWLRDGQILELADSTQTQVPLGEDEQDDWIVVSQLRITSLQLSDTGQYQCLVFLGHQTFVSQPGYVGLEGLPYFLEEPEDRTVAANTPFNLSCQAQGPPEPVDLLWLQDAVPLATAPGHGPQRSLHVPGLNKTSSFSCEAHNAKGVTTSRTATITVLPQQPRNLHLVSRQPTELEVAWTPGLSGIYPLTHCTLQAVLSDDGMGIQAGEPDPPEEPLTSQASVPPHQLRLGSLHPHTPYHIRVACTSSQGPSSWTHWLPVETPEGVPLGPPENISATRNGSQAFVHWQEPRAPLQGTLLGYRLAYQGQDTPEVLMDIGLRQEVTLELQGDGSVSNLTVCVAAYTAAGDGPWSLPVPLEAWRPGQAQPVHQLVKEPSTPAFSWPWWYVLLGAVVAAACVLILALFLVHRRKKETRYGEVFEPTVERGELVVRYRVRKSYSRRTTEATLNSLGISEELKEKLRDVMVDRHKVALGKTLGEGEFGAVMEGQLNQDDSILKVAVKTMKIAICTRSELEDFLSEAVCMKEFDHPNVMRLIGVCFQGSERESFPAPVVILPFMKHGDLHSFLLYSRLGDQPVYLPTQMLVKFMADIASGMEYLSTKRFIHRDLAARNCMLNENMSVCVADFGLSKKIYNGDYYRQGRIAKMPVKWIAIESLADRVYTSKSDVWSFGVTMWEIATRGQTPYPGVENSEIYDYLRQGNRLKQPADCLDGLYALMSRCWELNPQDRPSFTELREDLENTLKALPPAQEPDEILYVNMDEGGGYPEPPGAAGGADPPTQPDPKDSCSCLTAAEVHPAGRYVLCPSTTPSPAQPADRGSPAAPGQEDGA
The series can be described thus: Inhibition of autophosphorylation AXL (unknown origin) expressed in HEK293 cells assessed as NanoLuc activity associated with phosphorylated proteins measured after 1 hr incubation by intracellular pAXL-ELISA. It counts as cell-based. A general note: In an ELISA, binding on a coated surface is turned into a signal by an enzyme label.

The nature of series [16]: AUC (0 to 24 hrs) in human (healthy individuals) at 10 mg, single oral dose. Format: ADME. Particulars: in vivo.
In series [17] the test system is 786-0. The series can be described thus: Anti-tumor activity against human 786-0 cells xenografted in mouse model assessed as reduction in tumor volume in presence of sunitinib at 10 mg/kg, po once daily for 15 days. Particulars: time 15.0 day. It counts as functional, organism-based. (In xenograft studies the graft and the host belong to different species.)
Series [18] deals with 786-0. Kind of series: Anti-tumor activity against human 786-0 cells xenografted in mouse model assessed as tumor growth inhibition at 10 mg/kg, po once daily for 15 days. It counts as functional, organism-based. Particulars: time 15.0 day.

Calls of active or inactive are those of the source.

In general, half-life refers to the time needed for the level to fall by half in the phase considered. The low end stands for rapid decline, the high end for slow decline. The Tmax is the time at which the peak concentration occurs. A word on the IC50: it is the midpoint of a concentration-inhibition curve. A word on the clearance: it is the rate of elimination divided by the concentration. The low end stands for a low capacity for elimination, the high end for a high capacity for elimination. As a reminder, the AUC(0-t) is the area under the concentration-time curve up to a stated or last time point. A lower AUC(0-t) goes with low exposure.

T2 sequence (P08684 whole entry): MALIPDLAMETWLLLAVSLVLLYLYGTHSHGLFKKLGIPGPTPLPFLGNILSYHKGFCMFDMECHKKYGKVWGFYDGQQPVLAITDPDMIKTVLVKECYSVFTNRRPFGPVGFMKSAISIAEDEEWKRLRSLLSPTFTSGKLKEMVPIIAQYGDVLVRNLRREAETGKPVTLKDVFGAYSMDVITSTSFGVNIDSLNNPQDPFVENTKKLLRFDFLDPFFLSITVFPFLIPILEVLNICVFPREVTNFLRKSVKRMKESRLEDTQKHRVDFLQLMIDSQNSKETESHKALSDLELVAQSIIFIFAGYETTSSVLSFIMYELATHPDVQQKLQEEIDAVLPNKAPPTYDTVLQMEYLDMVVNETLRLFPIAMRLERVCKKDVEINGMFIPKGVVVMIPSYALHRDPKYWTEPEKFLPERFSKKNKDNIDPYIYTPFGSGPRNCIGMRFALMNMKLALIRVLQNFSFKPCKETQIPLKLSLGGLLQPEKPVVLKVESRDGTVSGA
Sequence of Cytochrome P450 2C9 (P11712 whole entry): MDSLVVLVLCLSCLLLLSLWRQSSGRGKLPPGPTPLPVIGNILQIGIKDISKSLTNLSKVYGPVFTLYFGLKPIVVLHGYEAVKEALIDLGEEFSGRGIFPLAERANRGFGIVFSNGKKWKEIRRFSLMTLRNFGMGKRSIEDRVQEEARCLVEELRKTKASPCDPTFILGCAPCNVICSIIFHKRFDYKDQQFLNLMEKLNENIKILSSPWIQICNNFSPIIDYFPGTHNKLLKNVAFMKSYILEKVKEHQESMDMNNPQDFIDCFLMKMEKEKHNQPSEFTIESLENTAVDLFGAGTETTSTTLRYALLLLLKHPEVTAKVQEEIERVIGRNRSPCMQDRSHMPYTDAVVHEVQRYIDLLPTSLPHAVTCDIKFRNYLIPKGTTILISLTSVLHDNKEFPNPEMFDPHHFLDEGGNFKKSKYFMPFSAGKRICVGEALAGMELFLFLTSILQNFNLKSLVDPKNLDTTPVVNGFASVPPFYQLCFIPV
Sequence of Cytochrome P450 3A4 (P08684 whole entry): as the sequence (P08684 whole entry) above
Sequence of Cytochrome P450 2C19 (P33261 whole entry): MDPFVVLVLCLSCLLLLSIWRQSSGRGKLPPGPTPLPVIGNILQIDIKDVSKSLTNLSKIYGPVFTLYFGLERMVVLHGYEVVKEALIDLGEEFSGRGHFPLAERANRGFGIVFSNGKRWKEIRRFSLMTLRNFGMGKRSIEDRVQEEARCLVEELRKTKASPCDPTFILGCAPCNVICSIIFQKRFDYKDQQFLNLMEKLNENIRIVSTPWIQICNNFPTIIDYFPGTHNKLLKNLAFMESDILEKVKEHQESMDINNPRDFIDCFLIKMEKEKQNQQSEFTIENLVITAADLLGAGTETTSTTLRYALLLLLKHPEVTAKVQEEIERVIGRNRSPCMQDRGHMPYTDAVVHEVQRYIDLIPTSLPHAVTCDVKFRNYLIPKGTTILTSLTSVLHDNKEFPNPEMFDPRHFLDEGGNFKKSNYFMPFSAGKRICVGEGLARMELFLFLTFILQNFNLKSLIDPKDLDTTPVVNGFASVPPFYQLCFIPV

For the compound `Cc1cccnc1-c1ccc(-c2n[nH]c3ncc(-c4ccc5c(c4)CC[C@@H](N4C6COCC4C6)CC5)cc23)nc1`, the half-life in series [1] was 54 h; in [9], 72 h. For the same compound, the Tmax in series [2] worked out at 8 h. In addition, the IC50 stood at 17 µM in series [3]; 17 µM in series [4]; 91 µM in series [5]; 5.6 µM in series [11]; 0.069 µM in series [15]. For the same compound, the inhibition at 0.5 h, 30 µM turned out to be 16% in series [6], 0% in series [10] and 16% in [14]. In addition, the clearance was 8.83 mL/min/kg in [7] and 10.8 mL/min/kg in [13]. The result in series [8] and in [18] was inactive. For the same compound, the figures for the AUC(0-t) in [12] and in series [16] were 2580 ng·h/mL and 55 ng·h/mL, respectively. In series [17], the outcome was Active.

The values are drawn from ChEMBL document CHEMBL6134930, “Discovery of AB801, a Potent and Selective Inhibitor of AXL Receptor Tyrosine Kinase for Use in Cancer Therapy” (J Med Chem, 2025).
